Assay results from US9029337B2, “Modulation of factor 7 expression” (Isis Pharmaceuticals, Inc., priority 2007, dated 2015).
Strand notation (5' to 3'): a small letter for the sugar, then the base; units joined by * are phosphorothioate-linked, units joined directly phosphodiester-linked; [ ] holds rarer units or linkages, { } end groups; capitals alone tell only the bases. e = 2'-O-(2-methoxyethyl) (MOE); [5mC] = 5-methylcytosine; d = 2'-deoxy (DNA)

test system: human Factor 7 mRNA; test: Antisense inhibition of human Factor 7 mRNA in HepB3 cells, 50 nM antisense oligonucleotide, lipofectin; assay type: cell-based; settings: Table 1, 50 nM, lipofectin, approximately 24 hours, relative to untreated control cells
In short: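 Percent inhibition, untreated cells as reference: derived from RNA collected about 24 hours post-transfection of 4,000-cell wells, with the human RTS 2927 primer probe set and adjustment for total RNA content (RIBOGREEN®).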

| Substance | % Inhibition [%] |
| --- | --- |
| 407601 (antisense e[5mC]*eA*eG*e[5mC]*e[5mC]*d[5mC]*dT*dG*dA*dA*dG*d[5mC]*d[5mC]*d[5mC]*dA*eA*eG*e[5mC]*eA*eG) [compound 407601] | 52 |
| 407659 (antisense eG*eA*eT*eG*eG*d[5mC]*dA*dT*d[5mC]*dG*dA*dG*dT*d[5mC]*d[5mC]*eA*e[5mC]*eT*e[5mC]*eT) [compound 407659] | 55 |
| 407602 (antisense e[5mC]*eT*eG*e[5mC]*eA*dG*d[5mC]*d[5mC]*dA*dG*dG*d[5mC]*dA*dG*d[5mC]*e[5mC]*e[5mC]*eT*eG*eA) [compound 407602] | 81 |
| 407888 (antisense e[5mC]*eG*eA*eA*eG*dA*d[5mC]*dT*dG*d[5mC]*dA*dG*d[5mC]*d[5mC]*dA*eG*eG*e[5mC]*eA*eG) [compound 407888] | 34 |
| 407660 (antisense eG*e[5mC]*eT*e[5mC]*eT*dG*dA*dA*dG*dT*dA*dG*dA*dT*dG*eA*eT*eG*e[5mC]*e[5mC]) [compound 407660] | 16 |
| 407887 (antisense e[5mC]*e[5mC]*eA*eG*eG*d[5mC]*dA*dG*d[5mC]*d[5mC]*d[5mC]*dT*dG*dA*dA*eG*e[5mC]*e[5mC]*e[5mC]*eA) [compound 407887] | 78 |

same assay, conditions: Table 6, 50 nM, lipofectin, approximately 24 hours

| Substance | % Inhibition [%] |
| --- | --- |
| 422190 (antisense eG*e[5mC]*eG*d[5mC]*dG*dG*dA*dA*dG*dA*dA*dG*dG*dG*dA*d[5mC]*dG*eG*eA*eA) [compound 422190] | 12 |
| 422199 (antisense eG*eG*eT*dT*dA*d[5mC]*dT*dG*dA*dG*d[5mC]*dG*d[5mC]*dG*dG*dA*dA*eG*eA*eA) [compound 422199] | 65 |
| 422266 (antisense e[5mC]*eG*d[5mC]*dG*dG*dA*dA*dG*dA*dA*dG*dG*dG*dA*d[5mC]*eG*eG*eA*eA*eG) [compound 422266] | 13 |
| 422275 (antisense eG*eT*dT*dA*d[5mC]*dT*dG*dA*dG*d[5mC]*dG*d[5mC]*dG*dG*dA*eA*eG*eA*eA*eG) [compound 422275] | 42 |
| 422128 (antisense eT*eT*eA*e[5mC]*eT*dG*dA*dG*d[5mC]*dG*d[5mC]*dG*dG*dA*dA*eG*eA*eA*eG*eG) [compound 422128] | 27 |
| 422123 (antisense eG*eA*eG*e[5mC]*eG*d[5mC]*dG*dG*dA*dA*dG*dA*dA*dG*dG*eG*eA*e[5mC]*eG*eG) [compound 422123] | 16 |

same assay, conditions: gapmers targeted to nucleobases 4868 to 4899 of SEQ ID NO: 1, Table 8

| Substance | % Inhibition of human Factor 7 mRNA levels [%] |
| --- | --- |
| 422224 (antisense eG*eG*eA*dG*d[5mC]*d[5mC]*d[5mC]*dG*dA*dG*dT*dT*d[5mC]*dT*dG*d[5mC]*dA*eG*eG*eA) [compound 422224] | 62 |

same assay, conditions: lipofectin, 50 nM antisense oligonucleotide, approximately 24 hours, Factor 7 mRNA by real-time RT-PCR (RTS 2927), relative to untreated control

| Substance | % Inhibition [%] |
| --- | --- |
| 416444 (antisense eA*e[5mC]*eA*eG*eT*dT*d[5mC]*d[5mC]*dG*dG*d[5mC]*d[5mC]*d[5mC]*dT*d[5mC]*eG*eA*eA*eG*eG) [compound 416444] | 24 |
| 416459 (antisense eT*eG*eG*eT*e[5mC]*dA*dG*dT*dG*dA*dG*dG*dA*d[5mC]*d[5mC]*eA*e[5mC]*eG*eG*eG) [compound 416459] | 23 |
| 416491 (antisense eG*eA*eG*eA*eA*dG*dG*dG*dT*dT*dG*d[5mC]*dA*dG*dG*e[5mC]*eA*eG*eG*eA) [compound 416491] | 2 |
| 416423 (antisense eG*eT*eG*eT*eT*dT*d[5mC]*dT*d[5mC]*d[5mC]*dT*d[5mC]*d[5mC]*dT*dG*eA*eG*eG*e[5mC]*e[5mC]) [compound 416423] | 51 |
| 416428 (antisense e[5mC]*eT*eG*eG*eG*dT*dT*dA*d[5mC]*dG*dA*dA*dG*dA*d[5mC]*eT*eG*e[5mC]*eA*eG) [compound 416428] | 11 |
| 416496 (antisense e[5mC]*eA*eA*e[5mC]*eA*d[5mC]*dT*dT*d[5mC]*dA*dA*dA*dT*dA*d[5mC]*eG*eA*eT*e[5mC]*eT) [compound 416496] | 0 |
| 416524 (antisense eT*eA*eA*eT*eT*dT*dA*dA*dT*dA*dT*dT*d[5mC]*dA*dG*eA*eT*eG*eG*eT) [compound 416524] | 0 |
| 416489 (antisense eG*eT*eG*e[5mC]*eA*dG*d[5mC]*dT*dT*dG*d[5mC]*d[5mC]*dA*dG*dG*eT*e[5mC]*e[5mC]*eT*e[5mC]) [compound 416489] | 38 |
| 416497 (antisense e[5mC]*eG*eT*eG*e[5mC]*dA*dG*dG*dT*dG*dT*dT*dA*dA*dG*eG*eT*eG*eT*eG) [compound 416497] | 0 |
| 416456 (antisense e[5mC]*eT*eG*e[5mC]*eG*d[5mC]*d[5mC]*dA*d[5mC]*d[5mC]*d[5mC]*dG*d[5mC]*d[5mC]*dG*eG*e[5mC]*eT*e[5mC]*eT) [compound 416456] | 58 |
| 416548 (antisense eA*eG*eG*eT*eG*dA*dA*dT*dG*dA*dA*dA*dT*dT*d[5mC]*eT*eA*e[5mC]*e[5mC]*eT) [compound 416548] | 29 |
| 416529 (antisense eG*eG*eG*e[5mC]*eT*dG*dA*dG*dA*d[5mC]*dT*dG*dA*dG*dG*eT*e[5mC]*eA*eG*e[5mC]) [compound 416529] | 18 |
| 416512 (antisense eG*eA*e[5mC]*eG*eA*d[5mC]*d[5mC]*dT*dT*dT*dG*d[5mC]*dT*dG*dG*eG*eA*eG*eG*eA) [compound 416512] | 43 |

same assay, conditions: oligonucleotides targeted to nucleobases 11830 to 11869 of SEQ ID NO: 1 (Table 9)

| Substance | % Inhibition (human Factor 7 mRNA levels) [%] |
| --- | --- |
| 422168 (antisense eT*eG*eA*dG*dG*dA*dG*dA*d[5mC]*dA*dA*dT*dG*dG*dT*d[5mC]*dA*eG*eG*eG) [compound 422168] | 30 |
| 422100 (antisense eG*eA*eG*eG*eA*dG*dA*d[5mC]*dA*dA*dT*dG*dG*dT*d[5mC]*eA*eG*eG*eG*e[5mC]) [compound 422100] | 59 |
| 422099 (antisense eA*eG*eG*eA*eG*dA*d[5mC]*dA*dA*dT*dG*dG*dT*d[5mC]*dA*eG*eG*eG*e[5mC]*eT) [compound 422099] | 48 |
| 422163 (antisense eA*eG*eA*d[5mC]*dA*dA*dT*dG*dG*dT*d[5mC]*dA*dG*dG*dG*d[5mC]*dT*eG*eG*eT) [compound 422163] | 56 |

same assay, conditions: oligonucleotides targeted to nucleobases 13760 to 13789 of SEQ ID NO: 1 (Table 10)

| Substance | % Inhibition (human Factor 7 mRNA levels) [%] |
| --- | --- |
| 416456 (antisense e[5mC]*eT*eG*e[5mC]*eG*d[5mC]*d[5mC]*dA*d[5mC]*d[5mC]*d[5mC]*dG*d[5mC]*d[5mC]*dG*eG*e[5mC]*eT*e[5mC]*eT) [compound 416456] | 50 |
| 422180 (antisense e[5mC]*e[5mC]*eA*d[5mC]*d[5mC]*d[5mC]*dG*d[5mC]*d[5mC]*dG*dG*d[5mC]*dT*d[5mC]*dT*dG*d[5mC]*eT*e[5mC]*eA) [compound 422180] | 54 |

same assay, conditions: oligonucleotides targeted to nucleobases 14707 to 14732 of SEQ ID NO: 1 (Table 11)

| Substance | % Inhibition (human Factor 7 mRNA levels) [%] |
| --- | --- |
| 422280 (antisense e[5mC]*eA*dG*d[5mC]*d[5mC]*dT*dG*dA*dG*dG*d[5mC]*d[5mC]*dA*dG*d[5mC]*eA*eG*eA*eT*e[5mC]) [compound 422280] | 52 |

same assay, conditions: oligonucleotides targeted to nucleobases 15098 to 15122 of SEQ ID NO: 1 (Table 12)

| Substance | % Inhibition (human Factor 7 mRNA levels) [%] |
| --- | --- |
| 422284 (antisense e[5mC]*eA*d[5mC]*dA*d[5mC]*dA*dT*dG*dG*dA*dG*dT*d[5mC]*dA*dG*e[5mC]*eA*eT*e[5mC]*eG) [compound 422284] | 43 |
